The values below come from US20090258873A1, “Novel tetrahydropyridothiophenes” (priority 2005, published 2009).

In assay [1] the test system is RKO (RKOp27) human colon adenocarcinoma cells. Kind of assay: Alamar Blue cell viability assay, anti-proliferative/cytotoxic activity on proliferating RKOp27 cells. It is filed as cell-based. To be noted: no Ponasterone A, 72 hours incubation, read-out: IC50 RKO p27 uninduced (proliferating). The protocol:
The anti-proliferative I cytotoxic activity of the compounds described herein, can be tested on subclones of RKO (RKOp27) human colon adenocarcinoma cells (Schmidt et al., Oncogene 19, 2423-2429; 2000) using the Alamar Blue cell viability assay (described in O'Brien et al. Eur J Biochem 267, 5421-5426, 2000). The compounds are dissolved as 20 mM solutions in dimethylsulfoxide (DMSO) and subsequently diluted in semi-logarithmic steps. DMSO dilutions are further diluted 1:100 into Dulbecco's modified Eagle's medium (DMEM) containing 10% fetal calf serum to a final concentration twice as much as the final concentration in the test. RKO subclones are seeded into 96 well flat bottom plates at a density of 5000 cells per well in a volume of 50 μl per well. 24 hours after seeding the 50 μl each of the compound dilutions in DMEM medium are added into each well of the 96 Well plate. Each compound dilution is tested as quadruplicates. Wells containing untreated control cells are filled with 50 μl DMEM medium containing 1% DMSO. The cells are then incubated with the substances for 72 hours at 37° C. in a hunified atmosphere containing 5% carbon dioxide. To determine the viability of the cells, 10 μl of an Alamar Blue solution (Biosource) are added and the fluorescence is measured at an extinction of 544 nm and an emission of 590 nm. For the calculation of the cell viability the emission value from untreated cells is set as 100% viability and the emission rates of treated cells are set in relation to the values of untreated cells. Viabilities are expressed as % values.
The corresponding IC50 values of the compounds for anti-proliferative/cytotoxic activity are determined from the concentration-effect curves.
Representative IC50 values for anti-proliferation/cytotoxicity determined in the mentioned assay follow from the following table A, in which the numbers of the compounds correspond to the numbers of the examples.

The subject of assay [2] is RKO colon adenocarcinoma cells (RKOp27) arrested by ectopic p27Kip1. In words: Alamar Blue cell viability assay on RKOp27 cells arrested by p27Kip1 expression induced with Ponasterone A (cell cycle specific mode of action). The class given is cell-based. The settings on record: Homo sapiens, RKOp27 cells arrested by p27Kip1 induced with 10 μM Ponasterone A, 72 hours incubation, read-out: IC50 RKO p27 induced (arrested). As to the method:
To determine the cell cycle specific mode of action, subclones of RKO colon adenocarcinoma cells (RKOp27 or RKOp21 as described by Schmidt et al. in Oncogene 19, 2423-2429; 2000) are seeded into 96 well flat bottom plates at a density of 15000 cells per well in a volume of 50 μl per well in DMEM growth medium with 10% FCS containing 10 μM Ponasterone A. 24 hours after seeding the 50 μl each of the compound dilutions in DMEM medium are added into each well of the 96 Well plate. Each compound dilution is tested as quadruplicates. Wells containing untreated control cells are filled with 50 μl DMEM medium containing 1% DMSO. The cells are then incubated with the substances for 72 hours at 37° C. in a humidified atmosphere containing 5% carbon dioxide. To determine the viability of the cells, 10 μl of an Alamar Blue solution (Biosource) are added and the fluorescence was measured at an extinction of 544 nm and an emission of 590 nm. For the calculation of the cell viability the emission value from untreated cells is set as 100% viability and the emission rates of treated cells are set in relation to the values of untreated cells. Viabilities are expressed as % values. Viability is compared of proliferating cells grown in the absence of the inducer Ponasterone A, versus viability of cells arrested by the expression of ectopic p27Kip1 induced by Ponasterone A.
A general note: The colour change of resazurin is a common sign of viable cells or microbes.

As a reminder, the IC50 is the concentration that gives 50% inhibition.

The structures appear in SMILES notation.

With `Cn1ccnc1CCC(=O)N1CCc2c(sc(NC(=O)CCc3ccccc3)c2C#N)C1` [Example 35, N-{3-Cyano-4-[3-(1-methyl-1H-imidazo-2-yl)-propanoyl]-4,5,6,7-tetrahydro-thieno[2,3-c]pyridin-2-yl}-3-phenyl-propionamide], the values for the IC50 in assay [1] and in assay [2] were at most 300 nM and at least 10000 nM, respectively.

As for `CCCC(=O)N1CCc2c(sc(NC(=O)CCc3ccco3)c2C#N)C1` [Example 14, N-(6-Butyryl-3-cyano-4,5,6,7-tetrahydro-thieno[2,3-c]pyridin-2-yl)-3-furan-2-yl-propionamide], the IC50 in assay [1] is at most 300 nM; in assay [2], over 100000 nM.

Turning to `CC(=O)OCC(=O)N1CCc2c(sc(NC(=O)CCc3ccccc3)c2C#N)C1` [Example 7, Acetic acid 2-[3-cyano-2-(3-phenyl-propanoylamino)-4,7-dihydro-5H-thieno[2,3-c]pyridin-6-yl]-2-oxo-ethyl ester], the IC50 is at most 300 nM in assay [1] and over 100000 nM in assay [2].

With `Cc1nccn1CCC(=O)N1CCc2c(sc(NC(=O)CC(C)c3ccccc3)c2C#N)C1` (racemic) [Example 32, (RS)—N-{3-Cyano-6-[3-(2-methyl-imidazol-1-yl)-propanoyl]-4,5,6,7-tetrahydro-thieno[2,3-c]pyridin-2-yl}-3-phenyl-butyramide], the IC50 was 300 to 2000 nM in assay [1] and at least 10000 nM in assay [2].

Consider `N#Cc1c(NC(=O)CCC2CCCCC2)sc2c1CCN(C(=O)Cc1ccccn1)C2` [Example 53, N-[3-Cyano-6-(2-pyridin-2-yl-ethanoyl)-4,5,6,7-tetrahydro-thieno[2,3-c]pyridin-2-yl]-3-cyclohexyl-propionamide], for which the IC50 is at most 300 nM in assay [1] and over 100000 nM in assay [2].

`CC(CC(=O)Nc1sc2c(c1C#N)CCN(C(=O)CCc1nccn1C)C2)c1ccccc1` (racemic) [Example 34, (RS)—N-{3-Cyano-6-[3-(1-methyl-1H-imidazol-2-yl)-propanoyl]-4,5,6,7-tetrahydro-thieno[2,3-c]pyridin-2-yl}-3-phenyl-butyramide]: the IC50 in assay [1] was at most 300 nM; in assay [2], at least 10000 nM.

For the molecule `N#Cc1c(NC(=O)CCc2ccccc2)sc2c1CCN(C(=O)Cc1cccnc1)C2` [Example 2, N-[3-Cyano-6-(2-pyridin-3-yl-ethanoyl)-4,5,6,7-tetrahydro-thieno[2,3-]pyridin-2-yl]-3-phenyl-propionamide], the values for the IC50 in assay [1] and in assay [2] were at most 300 nM and over 100000 nM, respectively.

In the case of `CC(CC(=O)Nc1sc2c(c1C#N)CCN(C(=O)CCc1ccncc1)C2)c1ccccc1` (racemic) [Example 36, (RS)—N-[3-Cyano-6-(3-pyridin-4-yl-propanoyl)-4,5,6,7-tetrahydro-thieno[2,3-c]pyridin-2-yl]-3-phenyl-butyramide], the IC50 in assay [1] is 300 to 2000 nM; in assay [2], at least 10000 nM.

Consider `COCC(=O)N1CCc2c(sc(NC(=O)CCc3ccco3)c2C#N)C1` [Example 13, N-[3-Cyano-6-(2-methoxy-ethanoyl)-4,5,6,7-tetrahydro-thieno[2,3-c]pyridin-2-yl]-3-furan-2-yl-propionamide], for which the IC50 in assay [1] is at most 300 nM; in assay [2], over 100000 nM.

`Cc1cn(CC(=O)N2CCc3c(sc(NC(=O)CC(C)c4ccccc4)c3C#N)C2)cn1` (racemic) [Example 40, (RS)—N-{3-Cyano-6-[2-(4-methyl-imidazol-yl)-ethanoyl]-4,5,6,7-tetrahydro-thieno[2,3-c]pyridin-2-yl}-3-phenyl-butyramide]: the values for the IC50 in assay [1] and in assay [2] were 300 to 2000 nM and at least 40000 nM, respectively.

Turning to `Cc1cn(CC(=O)N2CCc3c(sc(NC(=O)CCc4ccccc4)c3C#N)C2)c(C)n1` [Example 43, N-{3-Cyano 6-[2-(2,4-dimethyl-imidazol-1-yl)-ethanoyl]-4,5,6,7-tetrahydro-thieno[2,3-c]pyridin-2-yl}-3-phenyl-propionamide], the IC50 in assay [1] was 300 to 2000 nM; in assay [2] it was at least 40000 nM.

Take `CCCC(=O)N1CCc2c(sc(NC(=O)CCc3ccccc3)c2C#N)C1` [Example 28, N-(6-Butyryl-3-cyano-4,5,6,7-tetrahydro-thieno[2,3-c]pyridin-2-yl)-3-phenyl-propionamide]: the IC50 in assay [1] is at most 300 nM; in assay [2], over 100000 nM.

Turning to `COCCOCC(=O)N1CCc2c(sc(NC(=O)CCc3ccco3)c2C#N)C1` [Example 9, N-{3-Cyano-6-[2-(2-methoxy-ethoxy)-ethanoyl]-4,5,6,7-tetrahydro-thieno[2,3-c]pyridin-2-yl}-3-furan-2-yl-propionamide], the values for the IC50 in assay [1] and in assay [2] were at most 300 nM and over 100000 nM, respectively.

As for `Cc1nccn1CC(=O)N1CCc2c(sc(NC(=O)CC(C)c3ccccc3)c2C#N)C1` (racemic) [Example 37, (RS)—N-{3-Cyano-6-[2-(2-methyl-imidazo-1-yl)-ethanoyl]-4,5,6,7-tetrahydro-thieno[2,3-c]pyridin-2-yl}-3-phenyl-butyramide], the IC50 in assay [1] was at most 300 nM; in assay [2], at least 40000 nM.

As to `N#Cc1c(NC(=O)CCC2CCCCC2)sc2c1CCN(C(=O)CCn1ccnc1)C2` [Example 58], the 50% inhibitory concentration (IC50) is 300 to 2000 nM in assay [1] and over 100000 nM in assay [2].

Take `CC(CC(=O)Nc1sc2c(c1C#N)CCN(C(=O)CCn1ccnc1)C2)c1ccccc1` (racemic) [Example 31]: the IC50 in assay [1] is 300 to 2000 nM; in assay [2], over 100000 nM.

On to `Cc1cn(CCC(=O)N2CCc3c(sc(NC(=O)CCc4ccccc4)c3C#N)C2)cn1` [Example 45, N-[3-Cyano-6-[3-(4-methyl-imidazol-1-yl)-propanoyl]-4,5,6,7-tetrahydro-thieno[2,3-c]pyridin-2-yl]-3-phenyl-propionamide], for which the IC50 in assay [1] is 300 to 2000 nM; in assay [2] it was at least 10000 nM.

Take `Cc1nc2ccccc2n1CCC(=O)N1CCc2c(sc(NC(=O)CCc3ccccc3)c2C#N)C1` [Example 21]: the figures for the IC50 in assay [1] and in assay [2] were 300 to 2000 nM and over 100000 nM, respectively.

Turning to `N#Cc1c(NC(=O)CCc2ccccc2)sc2c1CCN(C(=O)Cn1ccnc1)C2` [Example 19, N-[3-Cyano-6-(2-imidazol-1-yl-ethanoyl)-4,5,6,7-tetrahydro-thieno[2,3-c]pyridin-2-yl]-3-phenyl-propionamide], the IC50 was 300 to 2000 nM in assay [1] and over 100000 nM in assay [2].

As for `N#Cc1c(NC(=O)CCc2ccco2)sc2c1CCN(C(=O)Cc1ccccn1)C2` [Example 10, N-[3-Cyano-6-(2-pyridin-2-yl-ethanoyi)-4,5,6,7-tetrahydro-thieno[2,3-c]pyridin-2-yl]-3-furan-2-yl-propionamide], the values for the IC50 in assay [1] and in assay [2] were at most 300 nM and over 100000 nM, respectively.

`N#Cc1c(NC(=O)CCc2ccccc2)sc2c1CCN(C(=O)CCn1ccnc1)C2` [Example 16, N-[3-Cyano-6-(3-imidazol-1-yl-propanoyl)-4,5,6,7-tetrahydro-thieno[2,3-c]pyridin-2-yl]-3-phenyl-propionamide]: the IC50 in assay [1] was at most 300 nM; in assay [2] it was over 100000 nM.

With `Cc1cn(CC(=O)N2CCc3c(sc(NC(=O)CC(C)c4ccccc4)c3C#N)C2)c(C)n1` (racemic) [Example 42, (RS)—N-{3-Cyano-6-[2-(2,4-dimethyl-midazol-1-yl)-ethanoy]-4,5,6,7-tetrahydro-thieno[2,3-c]pyridin-2-yl}-3-phenyl-butyramide], the IC50 in assay [1] is 300 to 2000 nM; in assay [2], at least 10000 nM.
